Peptide text beside a SMILES is read from it.
Key:
Stability in water = type: physicochemical; conditions: 1 mg/mL in sterile water, 37 °C, 24 h; HPLC Luna C18(2), PDA; 3 independent experiments, n=3 (Figure S1)
Procedure: A stock of IM peptide in sterile water (1 mg/mL) was prepared and divided into 200 µL portions. The sample tubes were stored in an incubator at 37 °C and analysis was performed at various time points (0, 1, 2, 3, 6, and 24 h). The analyses were performed by HPLC using a Luna C18(2) (5 µm, 100 Å 4.6 by 250 mm) column (Phenomenex, Torrance, CA, USA) and monitored by a PDA detector. Then, 0.01% TFA in H2O (A) and 0.01% TFA in 80% ACN in water (B) were used as solvents. A linear gradient of 5–100% B over 60 min and a flow rate of 1 mL/min was applied.
For calculations, peak areas were compared to a calibration curve calculated by LC solution Software (Shimadzu, Kyoto, Japan).

ASCs = test: Migration assay, ibidi culture inserts; type: cell-based, human; conditions: 0.1 µg/mL, 24 h; n=16
Procedure: (§1) The effect of IM on cell migration after 24 h was determined using ibidi culture inserts (ibidi, Cat. No. 81176, Gräfelfing, Germany). Cells were seeded in culture inserts, at a density of 30,000 per well, in appropriate medium supplemented with 10% FBS, which was changed to serum-free DMEM after 24 h. Mitomycin C (5 μg/mL) was added for 2 h to block cell proliferation. The medium was then changed, again, and cells were stimulated with an appropriate concentration of IM. After 24 h the cells were fixed with 3.7% paraformaldehyde, stained with 0.05% crystal violet, and the effect was measured with a phase-contrast fluorescent microscope (Zeiss, Oberkochen, Germany) and the surface areas were counted with Imaging Software NIS-Element Basic Research program.

HaCaT keratinocytes = test: Migration assay, ibidi culture inserts; type: cell-based, human; conditions: 0.1 and 1 µg/mL, 24 h, mitomycin C pre-treatment, serum-free; n=12 (Figure S7A)
Procedure: as §1

skin cells = test: Migration assay, ibidi culture inserts; type: cell-based, human; conditions: 0.1 and 1 µg/mL, 24 h
Procedure: as §1

[1] = tested on: primary fibroblast cell cultures; test: Transcript levels by qPCR; type: cell-based, human; conditions: 0.1 µg/mL, 48 h, 2^−ΔCt relative to Actb and Tbp (Figure 5)
Procedure: Cell stimulation was performed as previously described. Primary fibroblasts after the third passage and ASCs after the second passage were cultured in appropriate DMEM medium supplemented with 10% FBS for 24 h. Then, the medium was changed for DMEM with 5% FBS and 24-h incubation was performed. After another medium change for serum-free, cells were stimulated with IM peptide (0.1 µg/mL) for 48 h. Cell cultures deprived of FBS for 48 h were used as a control. After stimulation, the cells were trypsinized, collected, and centrifuged, and the pellet was kept frozen (−80 °C) for transcriptome analysis and transcript level analysis.
RNA was extracted using an RNeasy Mini kit (Qiagen, Cat. No. 74104, Hilden, Germany). RNA quality and concentrations were examined with a NanoDrop 2000 spectrophotometer. cDNA synthesis was performed in a reaction mixture containing 200 ng of RNA, 100 pmoles of oligo dT20, 4 µl of 5× reaction buffer (250 mM Tris-HCl, 375 mM KCl, 15 mM MgCl2, and 50 mM DTT), and 200 units of Maxima Reverse Transcriptase (ThermoScientific Bio. Cat. No. EP0742, Waltham, MA USA), at a final volume of 20 µl. PCR reactions were carried out on a LightCycler LC96 device (Roche, Basel, Switzerland), at a final volume of 10 µl containing 5 µl of FastStart Essential DNA Green Master (Roche, Cat. No. 06402712001, Basel, Switzerland), 1 µl of cDNA, and 0.25 µl each of forward and reverse primer (10 µM). The primer sequences are listed in Supplementary Table S4. The transcript levels were determined using the 2^−ΔCt method relative to Actb and Tbp.

[2] = tested on: human lymphocyte cultures; conditions: cited from earlier work
Text: Peptides play an important role in immunology, often through being epitopes for adaptive immune systems. Besides, they take part in mobilizing immune cells. […] Unfortunately, application of synthetic peptides can lead to unwanted immune activation or allergies and immunogenicity or immune-related adverse effects can limit the effectiveness of peptide-based therapies [[35],[36],[37 ...

SMILES: CC(C)[C@H](NC(=O)[C@H](CCCCN)NC(=O)[C@H](CC(=O)O)NC(=O)[C@@H](N)CCCNC(=N)N)C(=O)N[C@@H](Cc1ccc(O)cc1)C(=O)N[C@@H](CCCNC(=N)N)C(=O)O [IM, H-Arg-Asp-Lys-Val-Tyr-Arg-OH] (H-RDKVYR-OH)
- signal from the IM peptide after incubation in water (Stability in water): no reduction of the signal
- promigratory effect compared to the control (ASCs): 10–15%
- inhibition of migration compared to the control (HaCaT keratinocytes): 5–10%
- stimulation of migration of skin cells (skin cells): does not stimulate migration
- transcriptional response of POU5F1 ([1]; fibroblasts from all three donors): very strong induction
- transcriptional response of TET1 ([1]; primary fibroblasts): high activation
- transcriptional response of TET3 ([1]; primary fibroblasts): high activation
- synthesis of IgE [2]: suppress the synthesis
- production of IgM, IgG, and IgA ([2]; following stimulation with pokeweed mitogen): increase the production

Source: article PMC7355430, “Imunofan—RDKVYR Peptide—Stimulates Skin Cell Proliferation and Promotes Tissue Repair” (Molecules, 2020)
